Measured values reported in patent publication EP0160578A1, “1,8-Naphthyridine derivatives” (DAIICHI SEIYAKU CO., LTD., priority 1984, dated 1985).
≈ marks a conversion by molar mass, not a printed value.

Tests used:
Experiment in all cases: Antibacterial activity, dilution method in Muller-Hinton Bouillon (MIC)
Format in all cases: cell-based
S. epidermis, 56556 = details: 10^6/ml bacteria, 37°C, 18 hours, read-out: Minimal Inhibitory Concentration (MIC)
Protocol: (§1) The antibacterial activity of the compounds of the present invention was determined by the standard method of the Japan Society of Chemotherapy: according to the dilution method in Muller-Hinton Bouillon, 10^6/ml of bacteria were seeded and incubated at 37°C for 18 hours.

Ps. aeruginosa, 2128 = details: Pseudomonas aeruginosa, 10^6/ml bacteria, 37°C, 18 hours, read-out: Minimal Inhibitory Concentration (MIC)
Protocol: as §1

Ser. marcescens, 13001 = details: Serratia marcescens, 10^6/ml bacteria, 37°C, 18 hours, read-out: Minimal Inhibitory Concentration (MIC)
Protocol: as §1

Pr. vulgaris, 3167 = details: Proteus vulgaris, 10^6/ml bacteria, 37°C, 18 hours, read-out: Minimal Inhibitory Concentration (MIC)
Protocol: as §1

Pr. mirabilis, 1287 = details: Proteus mirabilis, 10^6/ml bacteria, 37°C, 18 hours, read-out: Minimal Inhibitory Concentration (MIC)
Protocol: as §1

E. coli, NIHJ = details: Escherichia coli, 10^6/ml bacteria, 37°C, 18 hours, read-out: Minimal Inhibitory Concentration (MIC)
Protocol: as §1

Ps. cepacia, IID1340 = details: Burkholderia cepacia, 10^6/ml bacteria, 37°C, 18 hours, read-out: Minimal Inhibitory Concentration (MIC)
Protocol: as §1

Ps. aeruginosa, 2131 = details: Pseudomonas aeruginosa, 10^6/ml bacteria, 37°C, 18 hours, read-out: Minimal Inhibitory Concentration (MIC)
Protocol: as §1

Str. faecalis, ATCC19433 = details: Enterococcus faecalis, 10^6/ml bacteria, 37°C, 18 hours, read-out: Minimal Inhibitory Concentration (MIC)
Protocol: as §1

Ps. aeruginosa, 2063 = details: Pseudomonas aeruginosa, 10^6/ml bacteria, 37°C, 18 hours, read-out: Minimal Inhibitory Concentration (MIC)
Protocol: as §1

Str. pyogenes, G-36 = details: Streptococcus pyogenes, G36, 10^6/ml bacteria, 37°C, 18 hours, read-out: Minimal Inhibitory Concentration (MIC)
Protocol: as §1

Sh. flexneri, 2a5503 = details: Shigella flexneri, 10^6/ml bacteria, 37°C, 18 hours, read-out: Minimal Inhibitory Concentration (MIC)
Protocol: as §1

S. aureus, Smith = details: Staphylococcus aureus, 10^6/ml bacteria, 37°C, 18 hours, read-out: Minimal Inhibitory Concentration (MIC)
Protocol: as §1

Ps. maltophilia, IID1275 = details: Stenotrophomonas maltophilia, 10^6/ml bacteria, 37°C, 18 hours, read-out: Minimal Inhibitory Concentration (MIC)
Protocol: as §1

## CCn1cc(C(=O)O)c(=O)c2cc(F)c(N3CCNCC3)nc21 [Control Compound, 1-ethyl-6-fluoro-7-(1-piperazinyl)-1,4-dihydro-4-oxo-1,8-naphthyridine-3-carboxylic acid, reference compound]
S. epidermis, 56556
  MIC: 0.78 µg/mL (≈ 2.44 µM)
Ps. aeruginosa, 2128
  MIC: 0.78 µg/mL (≈ 2.44 µM)
Ser. marcescens, 13001
  MIC: 0.2 µg/mL (≈ 0.624 µM)
Pr. vulgaris, 3167
  MIC: 0.2 µg/mL (≈ 0.624 µM)
Pr. mirabilis, 1287
  MIC: 0.2 µg/mL (≈ 0.624 µM)
E. coli, NIHJ
  MIC: 0.2 µg/mL (≈ 0.624 µM)
Ps. cepacia, IID1340
  MIC: 50 µg/mL (≈ 156 µM)
Ps. aeruginosa, 2131
  MIC: 0.2 µg/mL (≈ 0.624 µM)
Str. faecalis, ATCC19433
  MIC: 6.25 µg/mL (≈ 19.5 µM)
Ps. aeruginosa, 2063
  MIC: 0.78 µg/mL (≈ 2.44 µM)
Str. pyogenes, G-36
  MIC: 25 µg/mL (≈ 78 µM)
Sh. flexneri, 2a5503
  MIC: 0.2 µg/mL (≈ 0.624 µM)
S. aureus, Smith
  MIC: 0.78 µg/mL (≈ 2.44 µM)
Ps. maltophilia, IID1275
  MIC: 0.78 µg/mL (≈ 2.44 µM)

## O=C(O)c1cn(C2CC2)c2nc(N3CCNCC3)c(F)cc2c1=O [No. 1, 1-cyclopropyl-6-fluoro-7-(1-piperazinyl)-1,4-dihydro-4-oxo-1,8-naphthyridine-3-carboxylic acid]
S. epidermis, 56556
  MIC: 0.39 µg/mL (≈ 1.17 µM)
Ps. aeruginosa, 2128
  MIC: 0.1 µg/mL (≈ 0.301 µM)
Ser. marcescens, 13001
  MIC: ≤ 0.05 µg/mL
Pr. vulgaris, 3167
  MIC: ≤ 0.05 µg/mL
Pr. mirabilis, 1287
  MIC: ≤ 0.05 µg/mL
E. coli, NIHJ
  MIC: ≤ 0.05 µg/mL
Ps. cepacia, IID1340
  MIC: 3.13 µg/mL (≈ 9.42 µM)
Ps. aeruginosa, 2131
  MIC: 0.1 µg/mL (≈ 0.301 µM)
Str. faecalis, ATCC19433
  MIC: 1.56 µg/mL (≈ 4.69 µM)
Ps. aeruginosa, 2063
  MIC: 0.1 µg/mL (≈ 0.301 µM)
Str. pyogenes, G-36
  MIC: 6.25 µg/mL (≈ 18.8 µM)
Sh. flexneri, 2a5503
  MIC: ≤ 0.05 µg/mL
S. aureus, Smith
  MIC: 0.39 µg/mL (≈ 1.17 µM)
Ps. maltophilia, IID1275
  MIC: 0.78 µg/mL (≈ 2.35 µM)

## NC1CCN(c2nc3c(cc2F)c(=O)c(C(=O)O)cn3C2CC2)C1 (stereo not shown) [No. 2, 1-cyclopropyl-6-fluoro-7-(3-amino-1-pyrrolidinyl)-1,4-dihydro-4-oxo-1,8--naphthyridine-3-carboxylic acid]
S. epidermis, 56556
  MIC: 0.1 µg/mL (≈ 0.301 µM)
Ps. aeruginosa, 2128
  MIC: ≤ 0.05 µg/mL
Ser. marcescens, 13001
  MIC: ≤ 0.05 µg/mL
Pr. vulgaris, 3167
  MIC: ≤ 0.05 µg/mL
Pr. mirabilis, 1287
  MIC: ≤ 0.05 µg/mL
E. coli, NIHJ
  MIC: ≤ 0.05 µg/mL
Ps. cepacia, IID1340
  MIC: 0.39 µg/mL (≈ 1.17 µM)
Ps. aeruginosa, 2131
  MIC: 0.1 µg/mL (≈ 0.301 µM)
Str. faecalis, ATCC19433
  MIC: 0.39 µg/mL (≈ 1.17 µM)
Ps. aeruginosa, 2063
  MIC: ≤ 0.05 µg/mL
Str. pyogenes, G-36
  MIC: 0.78 µg/mL (≈ 2.35 µM)
Sh. flexneri, 2a5503
  MIC: ≤ 0.05 µg/mL
S. aureus, Smith
  MIC: 0.1 µg/mL (≈ 0.301 µM)
Ps. maltophilia, IID1275
  MIC: 0.39 µg/mL (≈ 1.17 µM)

## O=C(O)c1cn(C2CC2)c2nc(N3CCC(O)C3)c(F)cc2c1=O (stereo not drawn) [No. 3, l-cyclopropyl-6-fluoro-7-(3-hydroxy-l-pyrrolidinyl)-1,4-dihydro-4-oxo-1,8-naphthyridine-3-carboxylic acid]
S. epidermis, 56556
  MIC: 0.1 µg/mL (≈ 0.3 µM)
Ps. aeruginosa, 2128
  MIC: 0.39 µg/mL (≈ 1.17 µM)
Ser. marcescens, 13001
  MIC: 0.1 µg/mL (≈ 0.3 µM)
Pr. vulgaris, 3167
  MIC: ≤ 0.05 µg/mL
Pr. mirabilis, 1287
  MIC: ≤ 0.05 µg/mL
E. coli, NIHJ
  MIC: ≤ 0.05 µg/mL
Ps. cepacia, IID1340
  MIC: 0.39 µg/mL (≈ 1.17 µM)
Ps. aeruginosa, 2131
  MIC: 0.78 µg/mL (≈ 2.34 µM)
Str. faecalis, ATCC19433
  MIC: 0.39 µg/mL (≈ 1.17 µM)
Ps. aeruginosa, 2063
  MIC: 0.39 µg/mL (≈ 1.17 µM)
Str. pyogenes, G-36
  MIC: 1.56 µg/mL (≈ 4.68 µM)
Sh. flexneri, 2a5503
  MIC: ≤ 0.05 µg/mL
S. aureus, Smith
  MIC: ≤ 0.05 µg/mL
Ps. maltophilia, IID1275
  MIC: 0.39 µg/mL (≈ 1.17 µM)

## CN1CCN(c2nc3c(cc2F)c(=O)c(C(=O)O)cn3C2CC2)CC1 [No. 4, 1-cyclopropyl-6-fluoro-7-(4-methyl-1-piperazinyl)-1,4-dihydro-4-oxo-1,8-naphthyridine-3-carboxylic acid]
S. epidermis, 56556
  MIC: 0.39 µg/mL (≈ 1.13 µM)
Ps. aeruginosa, 2128
  MIC: 0.2 µg/mL (≈ 0.577 µM)
Ser. marcescens, 13001
  MIC: ≤ 0.05 µg/mL
Pr. vulgaris, 3167
  MIC: ≤ 0.05 µg/mL
Pr. mirabilis, 1287
  MIC: ≤ 0.05 µg/mL
E. coli, NIHJ
  MIC: ≤ 0.05 µg/mL
Ps. cepacia, IID1340
  MIC: 1.56 µg/mL (≈ 4.5 µM)
Ps. aeruginosa, 2131
  MIC: 0.39 µg/mL (≈ 1.13 µM)
Str. faecalis, ATCC19433
  MIC: 3.13 µg/mL (≈ 9.04 µM)
Ps. aeruginosa, 2063
  MIC: 0.39 µg/mL (≈ 1.13 µM)
Str. pyogenes, G-36
  MIC: 6.25 µg/mL (≈ 18 µM)
Sh. flexneri, 2a5503
  MIC: ≤ 0.05 µg/mL
S. aureus, Smith
  MIC: 0.2 µg/mL (≈ 0.577 µM)
Ps. maltophilia, IID1275
  MIC: 0.39 µg/mL (≈ 1.13 µM)

## O=C(O)c1cn(C2CC2)c2nc(N3CCCNCC3)c(F)cc2c1=O [No. 5, 1-cyclopropyl-6-fluoro-7-(1-homopiperazinyl)-1,4-dihydro-4-oxo-1,8-naphthyridine-3-carboxylic acid]
S. epidermis, 56556
  MIC: 0.39 µg/mL (≈ 1.13 µM)
Ps. aeruginosa, 2128
  MIC: 0.1 µg/mL (≈ 0.289 µM)
Ser. marcescens, 13001
  MIC: 0.1 µg/mL (≈ 0.289 µM)
Pr. vulgaris, 3167
  MIC: ≤ 0.05 µg/mL
Pr. mirabilis, 1287
  MIC: 0.1 µg/mL (≈ 0.289 µM)
E. coli, NIHJ
  MIC: ≤ 0.05 µg/mL
Ps. cepacia, IID1340
  MIC: 0.78 µg/mL (≈ 2.25 µM)
Ps. aeruginosa, 2131
  MIC: 0.2 µg/mL (≈ 0.577 µM)
Str. faecalis, ATCC19433
  MIC: 6.25 µg/mL (≈ 18 µM)
Ps. aeruginosa, 2063
  MIC: 0.2 µg/mL (≈ 0.577 µM)
Str. pyogenes, G-36
  MIC: 12.5 µg/mL (≈ 36.1 µM)
Sh. flexneri, 2a5503
  MIC: ≤ 0.05 µg/mL
S. aureus, Smith
  MIC: 0.39 µg/mL (≈ 1.13 µM)
Ps. maltophilia, IID1275
  MIC: 1.56 µg/mL (≈ 4.5 µM)

## CN1CCCN(c2nc3c(cc2F)c(=O)c(C(=O)O)cn3C2CC2)CC1 [No. 6, 1-cyclopropyl-6-fluoro-7-(N-methyl-1-homopiperazinyl)-1,4-dihydro-4-oxo-1,8-naphthyridine-3-carboxylic acid]
S. epidermis, 56556
  MIC: 0.39 µg/mL (≈ 1.08 µM)
Ps. aeruginosa, 2128
  MIC: 0.39 µg/mL (≈ 1.08 µM)
Ser. marcescens, 13001
  MIC: 0.2 µg/mL (≈ 0.555 µM)
Pr. vulgaris, 3167
  MIC: 0.1 µg/mL (≈ 0.277 µM)
Pr. mirabilis, 1287
  MIC: 0.2 µg/mL (≈ 0.555 µM)
E. coli, NIHJ
  MIC: ≤ 0.05 µg/mL
Ps. cepacia, IID1340
  MIC: 0.78 µg/mL (≈ 2.16 µM)
Ps. aeruginosa, 2131
  MIC: 0.78 µg/mL (≈ 2.16 µM)
Str. faecalis, ATCC19433
  MIC: 6.25 µg/mL (≈ 17.3 µM)
Ps. aeruginosa, 2063
  MIC: 0.78 µg/mL (≈ 2.16 µM)
Str. pyogenes, G-36
  MIC: 6.25 µg/mL (≈ 17.3 µM)
Sh. flexneri, 2a5503
  MIC: 0.1 µg/mL (≈ 0.277 µM)
S. aureus, Smith
  MIC: 0.39 µg/mL (≈ 1.08 µM)
Ps. maltophilia, IID1275
  MIC: 0.39 µg/mL (≈ 1.08 µM)

## CC1CN(c2nc3c(cc2F)c(=O)c(C(=O)O)cn3C2CC2)CCN1 (stereo not shown) [No. 7, 1-cyclopropyl-6-fluoro-7-(3-methyl-1-piperazinyl)-1,4-dihydro-4-oxo-1,8--naphthyridine-3-carboxylic acid]
S. epidermis, 56556
  MIC: 0.78 µg/mL (≈ 2.25 µM)
Ps. aeruginosa, 2128
  MIC: 0.2 µg/mL (≈ 0.577 µM)
Ser. marcescens, 13001
  MIC: ≤ 0.05 µg/mL
Pr. vulgaris, 3167
  MIC: ≤ 0.05 µg/mL
Pr. mirabilis, 1287
  MIC: 0.1 µg/mL (≈ 0.289 µM)
E. coli, NIHJ
  MIC: ≤ 0.05 µg/mL
Ps. cepacia, IID1340
  MIC: 0.39 µg/mL (≈ 1.13 µM)
Ps. aeruginosa, 2131
  MIC: 0.1 µg/mL (≈ 0.289 µM)
Str. faecalis, ATCC19433
  MIC: 3.13 µg/mL (≈ 9.04 µM)
Ps. aeruginosa, 2063
  MIC: 0.2 µg/mL (≈ 0.577 µM)
Str. pyogenes, G-36
  MIC: 1.56 µg/mL (≈ 4.5 µM)
Sh. flexneri, 2a5503
  MIC: ≤ 0.05 µg/mL
S. aureus, Smith
  MIC: 0.39 µg/mL (≈ 1.13 µM)
Ps. maltophilia, IID1275
  MIC: 0.39 µg/mL (≈ 1.13 µM)
